For 1 compound, EC50 results are on record in ChEMBL document CHEMBL1151618, “Neoisostegane, a new bisbenzocyclooctadiene lignan lactone from Steganotaenia araliacea” (1984).

Converted amounts (≈) assume the structure as drawn.

In this assay the test system is KB. Put plainly: Cytotoxicity against human KB cells. Type of assay: functional. The note with it: read-out: ED50 (the source's name).

As for `COc1cc2c(cc1OC)-c1cc(OC)c(OC)c(OC)c1C[C@H]1C(=O)OC[C@@H]1C2` [NEOISOSTEGANE], the EC50 amounted to 6.6 µg/mL (≈ 15.9 µM).
